# Measured values: US10815222B2, “Compounds for use in the treatment of kinetoplastid infection” (C.N.C.C.S. S.c.a.r.l. COLLEZIONE NAZIONALE DEI COMPOSTI …, priority 2016, dated 2020)
# Test system: Bloodstream form of Trypanosoma brucei, strain Lister 427
# Experiment: Trypanosoma brucei growth inhibition assay (CellTiter-Glo, 24 h)
# Assay type: cell-based
# Details: Trypanosoma brucei; T. Brucei Growth Inibition Assay, class symbols; read-out: T. Brucei GI EC50
# Description: Bloodstream form of Trypanosoma brucei, strain Lister 427 (provided by Prof. Miguel Navarro, Instituto de Parasitologia y Biomedicina “Lopez-Neyra” Avda. Conocimiento S/N Parque Tecnologico Ciencias de la Salud—Spain; ref. Navarro M. and Cross G. A. M. Molecular and Cellular Biology, 1996, Vol. 16, No. 7, pp. 3615-3625) were grown in IMDM Iscove's Modified Dulbecco's Medium (SIGMA #17633) supplemented with: 3.024 g/l sodium bicarbonate, hypoxanthine 1 mM, thymidine 0.16 mM, bathocuprione sulfonic acid 0.05 mM, cysteine 1.5 mM, ß-mercaptoethanol […] and 10% foetal bovine serum (heat-inactivated at 56° C. for 30 min). Parasites were grown at 37° C. in flasks with vented caps in a 5% CO2 incubator to a maximum cell density of about 2×10^6/ml and diluted every two-three days.
# The compounds of the invention were dissolved in DMSO and transferred to assay plates by acoustic droplet ejection (ATS-100, EDC Biosystems, USA) in order to obtain an appropriate concentration and to keep the concentration of DMSO below or equal to 0.25% in the final assay volume of 30 μL. 1500 parasites resuspended in 30 μL of culture medium were then transferred to each well of a 384-well plate.
# After an incubation period of 24 hours at 37° C., each well is added 15 μl of CellTiter-Glo® Reagent (Promega) and incubated at room temperature. 5-10 min post incubation, the plate is read using a luminometer (ViewLux®). A known inhibitor of the growth of T. brucei was used as the reference positive control.
row,SMILES,EC50
1,COc1nc2ccccc2cc1-c1cnc(C2CN(CC3CCOC3)CCN2C(=O)Cn2c(C#N)nc3ccccc32)[nH]1 (stereo not drawn),1010 to 5000 nM
2,COc1nc2ccccc2cc1-c1cnc([C@@H]2CN(CC3CCOC3)CCN2C(=O)Cn2c(C(N)=O)nc3ccccc32)[nH]1 (stereo partly drawn),510 to 1000 nM
3,COc1nc2ccccc2cc1-c1cnc([C@@H]2CN(CC3CCOC3)CCN2C(=O)Cn2c(C)nc3cncnc32)[nH]1 (stereo partly drawn),100 to 500 nM
4,COc1nc2ccccc2cc1-c1cnc([C@@H]2CN(CC3CCOC3)CCN2C(=O)Cn2c(C)nc3ccc(S(C)(=O)=O)cc32)[nH]1 (stereo partly drawn),100 to 500 nM
5,COc1nc2ccccc2cc1-c1cnc([C@@H]2CN(CC3CCOC3)CCN2C(=O)Cn2c(S(C)(=O)=O)nc3ccccc32)[nH]1 (stereo partly drawn),100 to 500 nM
6,COc1nc2ccccc2cc1-c1cnc([C@@H]2CN(CC3CCOC3)CCN2C(=O)Cn2c(C)nc3ncncc32)[nH]1 (stereo partly drawn),1010 to 5000 nM
7,COc1nc2ccccc2cc1-c1cnc([C@@H]2CN(CC3CCOC3)CCN2C(=O)Cc2noc3ccc(F)cc23)[nH]1 (stereo partly drawn),1010 to 5000 nM
8,COc1ccc2onc(CC(=O)N3CCN(CC4CCOC4)C[C@H]3c3ncc(-c4cc5ccccc5nc4OC)[nH]3)c2c1 (stereo partly drawn),100 to 500 nM
9,COc1ccc2nc(C(F)(F)F)n(CC(=O)N3CCOCC3c3ncc(-c4cc5ccccc5nc4OC)[nH]3)c2c1 (stereo not drawn),100 to 500 nM
10,COc1ccc2nc(C(F)(F)F)n(CC(=O)N3CCN(CC4COC4)CCC3c3ncc(-c4cc5ccccc5nc4OC)[nH]3)c2c1 (stereo not drawn),100 to 500 nM
11,COc1ccc2nc(C(F)(F)F)n(CC(=O)N3CCN(C)CCC3c3ncc(-c4cc5ccccc5nc4OC)[nH]3)c2c1 (stereo not drawn),510 to 1000 nM
12,COc1ccc2nc(C)n(CC(=O)N3CCS(=O)(=O)CC3c3ncc(-c4cc5ccccc5nc4OC)[nH]3)c2c1 (stereo not drawn),1010 to 5000 nM
13,COc1ccc2nc(C)n(CC(=O)N3CCCCC3c3ncc(-c4cc5ccccc5nc4OC)[nH]3)c2c1 (stereo not drawn),100 to 500 nM
14,COc1ccc2nc(C)n(CC(=O)N3CCN(CC4COC4)CCC3c3ncc(-c4cc5ccccc5nc4OC)[nH]3)c2c1 (stereo not drawn),510 to 1000 nM
15,COc1ccc2nc(C)n(CC(=O)N3CCN(C[C@H]4CCOC4)CC3c3ncc(-c4ccc(-c5ccccc5)nc4OC)[nH]3)c2c1 (stereo partly drawn),100 to 500 nM
16,COc1ccc2nc(C)n(CC(=O)N3CCN(C)CCC3c3ncc(-c4cc5ccccc5nc4OC)[nH]3)c2c1 (stereo not drawn),1010 to 5000 nM
17,COc1ccc2nc(C)n(CC(=O)N3CCOCC3c3ncc(-c4cc5ccccc5nc4OC)[nH]3)c2c1 (stereo not drawn),1010 to 5000 nM
18,COc1ccc2nc(C)n(CC(=O)N3CCN(Cc4cnccn4)CCC3c3ncc(-c4cc5ccccc5nc4OC)[nH]3)c2c1 (stereo not drawn),100 to 500 nM
19,COc1ccc2nc(C)n(CC(=O)N3CCN(C[C@@H]4CCOC4)CC3c3ncc(-c4ccc(-c5ccccc5)nc4OC)[nH]3)c2c1 (stereo partly drawn),1010 to 5000 nM
20,COc1ccc2cc(C)n(CC(=O)N3CCCCC3c3ncc(-c4cc5ccccc5nc4OC)[nH]3)c2c1 (stereo not drawn),100 to 500 nM
21,COc1ccc2cc(C)n(CC(=O)N3CCS(=O)(=O)CC3c3ncc(-c4cc5ccccc5nc4OC)[nH]3)c2c1 (stereo not drawn),510 to 1000 nM
22,COc1ccc2cc(C)n(CC(=O)N3CCOCC3c3ncc(-c4cc5ccccc5nc4OC)[nH]3)c2c1 (stereo not drawn),510 to 1000 nM
23,COc1ccc2cc(C)n(CC(=O)N3CCN(C)CCC3c3ncc(-c4cc5ccccc5nc4OC)[nH]3)c2c1 (stereo not drawn),510 to 1000 nM
24,CCC(=O)CCCN1CCN(C(=O)Cc2c[nH]c3ncccc23)C(c2ncc(-c3cc4ccccc4nc3OC)[nH]2)C1 (stereo not drawn),510 to 1000 nM
25,CCC(=O)CCCN1CCN(C(=O)Cc2c(C)[nH]c3ccc(OC)cc23)C(c2ncc(-c3cc4ccccc4nc3OC)o2)C1 (stereo not drawn),1010 to 5000 nM
26,CCC(=O)CCCN1CCN(C(=O)Cc2c(C)[nH]c3ccc(OC)cc23)C(c2ncc(-c3ccccc3)[nH]2)C1 (stereo not drawn),100 to 500 nM
27,COc1ccc2nc(C)n(CC(=O)N3CCN(C4CCN(C(C)=O)CC4)C[C@H]3c3ncc(-c4cc5ccccc5nc4OC)[nH]3)c2c1,510 to 1000 nM
28,COc1ccc2nc(C)n(CC(=O)N3CCN(C4CCS(=O)(=O)CC4)C[C@H]3c3ncc(-c4cc5ccccc5nc4OC)[nH]3)c2c1,510 to 1000 nM
29,COc1ccc2nc(C(F)(F)F)n(CC(=O)N3CCN(CCn4cnnc4)C[C@H]3c3ncc(-c4cc5ccccc5nc4OC)[nH]3)c2c1,1010 to 5000 nM
30,COc1ccc2nc(C)n(CC(=O)N3CCN(Cc4nnc(C)o4)C[C@H]3c3ncc(-c4cc5ccccc5nc4OC)[nH]3)c2c1,100 to 500 nM
